Data reported in PubChem BioAssay (NCI).
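Results reflect a 48-hour exposure of cells in 96-well plates to compound at five concentrations. The concentration for 50% growth inhibition is given as GI50. TGI: concentration producing complete growth inhibition.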

Legend:
Test in all cases: growth of human tumour cells (NCI), 48 h
[1] = system: MOLT-4 leukemia
[2] = system: 786-0 renal
[3] = system: RPMI-8226 leukemia
[4] = system: PC-3 prostate
[5] = system: MALME-3M melanoma
[6] = system: OVCAR-8 ovarian
[7] = system: SK-OV-3 ovarian
[8] = system: HT29 colon
[9] = system: T-47D breast
[10] = system: M14 melanoma
[11] = system: NCI-H226 lung
[12] = system: NCI/ADR-RES ovarian
[13] = system: NCI-H522 lung
[14] = system: HCT-15 colon
[15] = system: CCRF-CEM leukemia
[16] = system: SW-620 colon
[17] = system: TK-10 renal
[18] = system: CAKI-1 renal
[19] = system: UO-31 renal
[20] = system: KM12 colon
[21] = system: HOP-62 NSCLC
[22] = system: BT-549 breast
[23] = system: SF-539 CNS
[24] = system: HL-60(TB) leukemia
[25] = system: HOP-92 NSCLC
[26] = system: COLO 205 colon
[27] = system: K-562 leukemia
[28] = system: SK-MEL-5 melanoma
[29] = system: SF-268 CNS
[30] = system: RXF 393 renal
[31] = system: NCI-H460 lung
[32] = system: UACC-62 melanoma
[33] = system: MDA-MB-435
[34] = system: OVCAR-3 ovarian
[35] = system: SK-MEL-28 melanoma
[36] = system: SF-295 CNS
[37] = system: OVCAR-5 ovarian
[38] = system: A498 renal
[39] = system: DU-145 prostate
[40] = system: A549 NSCLC
[41] = system: U251 CNS
[42] = system: SK-MEL-2 melanoma
[43] = system: HS 578T breast
[44] = system: SN12C renal
[45] = system: NCI-H23 lung
[46] = system: MDA-MB-231 breast
[47] = system: IGROV1 ovarian
[48] = system: SNB-75 CNS
[49] = system: UACC-257 melanoma
[50] = system: SNB-19 CNS
[51] = system: HCT-116 colon
[52] = system: OVCAR-4 ovarian
[53] = system: HCC-2998 colon
[54] = system: ACHN renal
[55] = system: LOX IMVI melanoma
[56] = system: EKVX NSCLC
[57] = system: SR leukemia

`O=C(C(Br)C(Br)c1ccccc1)C(Br)C(Br)c1ccccc1` (centres undefined) was tested, and the GI50 [1] was 0.348 µM, the TGI [1] was 1.41 µM and the GI50 [2] was 0.828 µM. It also gave a TGI [2] of 2.21 µM, a GI50 [3] of 0.325 µM and a TGI [3] of 1.33 µM. The GI50 [4] was 2.03 µM, the TGI [4] was 5.4 µM and the GI50 [5] was 1.4 µM. The TGI [5] was 3.4 µM, the GI50 [6] was 0.665 µM and the TGI [6] was 2.22 µM. For the same compound, the GI50 [7] was 4.67 µM, the TGI [7] was 19.3 µM and the GI50 [8] was 0.346 µM. For the same compound, the TGI [8] was 1.2 µM, the GI50 [9] was 0.279 µM and the TGI [9] was 1.42 µM. For the same compound, the GI50 [10] was 1.95 µM, the TGI [10] was 4.41 µM and the GI50 [11] was 1.74 µM. For the same compound, the TGI [11] was 3.71 µM, the GI50 [12] was 2.95 µM and the TGI [12] was 13.3 µM. For the same compound, the GI50 [13] was 0.233 µM, the TGI [13] was 0.61 µM and the GI50 [14] was 0.277 µM. It also gave a TGI [14] of 0.849 µM, a GI50 [15] of 0.236 µM and a TGI [15] of 0.886 µM. It also gave a GI50 [16] of 0.321 µM, a TGI [16] of 1.09 µM and a GI50 [17] of 0.311 µM. The TGI [17] was 1.44 µM, the GI50 [18] was 0.389 µM and the TGI [18] was 1.37 µM. It also gave a GI50 [19] of 0.236 µM, a TGI [19] of 0.846 µM and a GI50 [20] of 2.1 µM. For the same compound, the TGI [20] was 4.27 µM, the GI50 [21] was 3.08 µM and the TGI [21] was 8.89 µM. It also gave a GI50 [22] of 1.86 µM, a TGI [22] of 3.39 µM and a GI50 [23] of 1.66 µM. It also gave a TGI [23] of 3.19 µM, a GI50 [24] of 0.694 µM and a TGI [24] of 2.75 µM. It also gave a GI50 [25] of 1.46 µM, a TGI [25] of 3.01 µM and a GI50 [26] of 1.07 µM. For the same compound, the TGI [26] was 2.8 µM, the GI50 [27] was 0.302 µM and the TGI [27] was 1.38 µM. The GI50 [28] was 1.69 µM, the TGI [28] was 3.51 µM and the GI50 [29] was 2.26 µM. For the same compound, the TGI [29] was 5.62 µM, the GI50 [30] was 0.527 µM and the TGI [30] was 1.77 µM. The GI50 [31] was 2.27 µM, the TGI [31] was 5.3 µM and the GI50 [32] was 1.32 µM. For the same compound, the TGI [32] was 2.69 µM, the GI50 [33] was 1.14 µM and the TGI [33] was 3.07 µM. For the same compound, the GI50 [34] was 0.511 µM, the TGI [34] was 1.67 µM and the GI50 [35] was 1.62 µM. The TGI [35] was 3.36 µM, the GI50 [36] was 4.6 µM and the TGI [36] was 13.6 µM. For the same compound, the GI50 [37] was 1.57 µM, the TGI [37] was 2.95 µM and the GI50 [38] was 1.72 µM. It also gave a TGI [38] of 4.12 µM, a GI50 [39] of 1.46 µM and a TGI [39] of 2.91 µM. For the same compound, the GI50 [40] was 2.88 µM, the TGI [40] was 10.1 µM and the GI50 [41] was 1.89 µM. The TGI [41] was 4.53 µM, the GI50 [42] was 1.87 µM and the TGI [42] was 3.78 µM. For the same compound, the GI50 [43] was 2.58 µM, the TGI [43] was 8.4 µM and the GI50 [44] was 1.78 µM. The TGI [44] was 3.83 µM, the GI50 [45] was 2.02 µM and the TGI [45] was 4.83 µM. For the same compound, the GI50 [46] was 1.31 µM, the TGI [46] was 2.83 µM and the GI50 [47] was 1.61 µM. For the same compound, the TGI [47] was 3.41 µM, the GI50 [48] was 1.77 µM and the TGI [48] was 6.14 µM. The GI50 [49] was 1.37 µM, the TGI [49] was 2.92 µM and the GI50 [50] was 3.49 µM. It also gave a TGI [50] of 14.9 µM, a GI50 [51] of 0.198 µM and a TGI [51] of 0.4 µM. It also gave a GI50 [52] of 1.14 µM, a TGI [52] of 2.52 µM and a GI50 [53] of 1.91 µM. For the same compound, the TGI [53] was 3.52 µM, the GI50 [54] was 0.253 µM and the TGI [54] was 0.63 µM. It also gave a GI50 [55] of 0.633 µM and a TGI [55] of 1.88 µM.
`CC1=C(C(=O)Nc2ccc(Cl)c(Cl)c2)C(c2ccccc2Cl)NC(=S)N1` (centres undefined) was tested, and the GI50 [1] was 8.92 µM, the TGI [1] was greater than 50 µM and the GI50 [2] was 10.2 µM. The TGI [2] was 20 µM, the GI50 [3] was 4.18 µM and the TGI [3] was 24 µM. For the same compound, the GI50 [4] was 8.08 µM, the TGI [4] was 23.3 µM and the GI50 [7] was 12.5 µM. The TGI [7] was greater than 50 µM, the GI50 [9] was 18.9 µM and the TGI [9] was greater than 50 µM. The GI50 [10] was 11.6 µM, the TGI [10] was 26.9 µM and the GI50 [11] was 10.1 µM. The TGI [11] was 25.7 µM, the GI50 [12] was 9.62 µM and the TGI [12] was 19.7 µM. The GI50 [13] was 13.6 µM, the TGI [13] was 24.9 µM and the GI50 [14] was 7.8 µM. It also gave a TGI [14] of 19 µM, a GI50 [16] of 10.8 µM and a TGI [16] of 24.4 µM. For the same compound, the GI50 [17] was 10.1 µM, the TGI [17] was 22.6 µM and the GI50 [18] was 9.85 µM. The TGI [18] was 21.5 µM, the GI50 [19] was 8.06 µM and the TGI [19] was 16.7 µM. The GI50 [20] was 8.71 µM, the TGI [20] was 17.6 µM and the GI50 [21] was 12.4 µM. For the same compound, the TGI [21] was 22.7 µM, the GI50 [22] was 39.4 µM and the TGI [22] was greater than 50 µM. The GI50 [24] was 15.4 µM, the TGI [24] was greater than 50 µM and the GI50 [25] was 1.15 µM. The TGI [25] was 9.02 µM, the GI50 [26] was 8.01 µM and the TGI [26] was 22.2 µM. The GI50 [27] was 11 µM, the TGI [27] was greater than 50 µM and the GI50 [28] was 7.96 µM. It also gave a TGI [28] of 15.1 µM, a GI50 [29] of 5.62 µM and a TGI [29] of 12.5 µM. The GI50 [31] was 6.58 µM, the TGI [31] was 13.7 µM and the GI50 [32] was 8.01 µM. It also gave a TGI [32] of 18.9 µM, a GI50 [33] of 8.08 µM and a TGI [33] of 16.2 µM. It also gave a GI50 [56] of 9.09 µM, a TGI [56] of 19 µM and a GI50 [34] of 10.5 µM. For the same compound, the TGI [34] was 20.6 µM, the GI50 [36] was 9.46 µM and the TGI [36] was 22 µM. It also gave a GI50 [37] of 13.6 µM, a TGI [37] of 41.9 µM and a GI50 [39] of 11.9 µM. The TGI [39] was greater than 50 µM, the GI50 [40] was 24.1 µM and the TGI [40] was greater than 50 µM. The GI50 [41] was 11.9 µM, the TGI [41] was 26.8 µM and the GI50 [57] was 11.7 µM. For the same compound, the TGI [57] was greater than 50 µM, the GI50 [42] was 14.6 µM and the TGI [42] was 25.2 µM. The GI50 [43] was 6.38 µM, the TGI [43] was 13.9 µM and the GI50 [44] was 8.53 µM. The TGI [44] was 15.8 µM, the GI50 [46] was 7.15 µM and the TGI [46] was 17.3 µM. For the same compound, the GI50 [47] was 22.5 µM, the TGI [47] was greater than 50 µM and the GI50 [48] was 5.48 µM. It also gave a TGI [48] of 29.2 µM, a GI50 [49] of 14.5 µM and a TGI [49] of 26.8 µM. It also gave a GI50 [50] of 0.695 µM, a TGI [50] of 12.8 µM and a GI50 [51] of 6.23 µM. For the same compound, the TGI [51] was 12.5 µM, the GI50 [52] was 23.6 µM and the TGI [52] was greater than 50 µM. It also gave a GI50 [54] of 10.9 µM, a TGI [54] of 25.2 µM and a GI50 [55] greater than 50 µM. It also gave a TGI [55] greater than 50 µM.
